Here are results for 29 compounds from ChEMBL document CHEMBL3301448, “MMV Malaria Box screening against Toxoplasma gondii and Entamoeba histolytica”.

For one assay, the system named is Toxoplasma gondii. Nature of the assay: MMV: A total of 100ul of inoculum was added to each well (parasite/cell ratio, ~10:1; final volume, 200 ul). Six hours after inoculation, nonadherent parasites were removed, and 100 ul of complete DMEM (1% penicillin-streptomycin, 3% FBS) supplemented with inhibitors at different concentrations (2-fold serial dilutions starting from 30 uM) was added to all except the negative-control wells. Positive controls, consisting of pyrimethamine (PYR) and sulfadiazine (SDZ) (20-mg/ml stocks in DMSO), were tested at a 2mg/ml final concentration. Each test was performed in triplicate. It counts as functional, organism-based. As to conditions: 6 h.

For another assay, the system named is Entamoeba histolytica. The assay is described as follows: MMV: Primary screening was performed with each compound at a 30 uM final concentration and in triplicate in sealed 96-well polystyrene microtiter plates. Parasite inocula (100 ul) comprising 20000 parasites/ml were added to each well and grown at 37 degrees C in a humidified atmosphere of 5% CO2 for 72 h. Positive controls consisted of metronidazole at 1 mg/ml. The growth of E. histolytica trophozoites in each well was determined microscopically by measuring the diameters of the confluent cells in drug-containing wells relative to those in the nega- tive-control wells. Format: functional, organism-based.

Broadly, the IC50 is the concentration needed to halve the response being measured. For the compound `CCN1CCCC1CNc1[nH]cnc2c3cc(Cl)ccc3nc1-2` (stereo not drawn), the IC50 with Toxoplasma gondii and in the assay with Entamoeba histolytica was greater than 30 µM in each case.

As to `C[n+]1c2ccccc2nc2ccc(NCCO)cc21`, the IC50 in the assay on Toxoplasma gondii and with Entamoeba histolytica was greater than 30 µM each time.

Regarding `Cc1ccc(-c2cc3c(nn2)-c2ccccc2C3=O)cc1`, the IC50 in the assay on Toxoplasma gondii and in the assay with Entamoeba histolytica was greater than 30 µM each time.

For `Cc1ccc(Nc2nc(-c3ccccn3)cs2)cc1`, the IC50 in the assay on Toxoplasma gondii and with Entamoeba histolytica was greater than 30 µM in each case.

In the case of `CCC(C)NCC(O)(c1ccc(Cl)cc1)c1ccc(Cl)cc1` (stereo not drawn), the IC50 in the assay with Toxoplasma gondii and with Entamoeba histolytica was greater than 30 µM throughout.

Regarding `COCCNC(=O)c1ccc(OC2CCN(Cc3ccc(F)c(F)c3)CC2)c(Cl)c1`, the IC50 in the assay on Toxoplasma gondii and with Entamoeba histolytica was greater than 30 µM throughout.

As for `COc1ccc(C(=O)Nc2nonc2-c2ccc(OC)c(OC)c2)cc1Cl`, the IC50 in the assay with Toxoplasma gondii and in the assay on Entamoeba histolytica was greater than 30 µM each time.

With `COCCN(C(=O)Cc1cccs1)C(C(=O)NCc1ccc(OC)cc1)c1ccc(C(C)C)cc1` (stereo not drawn), the IC50 in the assay with Toxoplasma gondii and with Entamoeba histolytica was greater than 30 µM in each case.

Take `COc1ccc2c(c1)OC(O)(C(F)(F)C(F)(F)F)CC2=O` (stereo not drawn): the IC50 with Toxoplasma gondii and in the assay with Entamoeba histolytica was greater than 30 µM in each case.

`FC(F)(F)c1cccc(CNC2CCN(CCc3ccccc3)CC2)c1`: the IC50 in the assay on Toxoplasma gondii and with Entamoeba histolytica was greater than 30 µM throughout.

Turning to `Oc1ccc(Cl)cc1CNc1nc2ccccc2[nH]1`, the IC50 in the assay with Toxoplasma gondii was 26.8 µM; with Entamoeba histolytica, greater than 30 µM.

`CCOc1cc(Cl)c(C(C)NC(=O)c2ccccc2)cc1OCC` (stereo not drawn): the IC50 in the assay on Toxoplasma gondii and in the assay with Entamoeba histolytica was greater than 30 µM throughout.

With `O=C(Nc1ccc(Cl)cc1)N1CCN(c2ccc3nncn3n2)CC1`, the IC50 in the assay with Toxoplasma gondii and in the assay on Entamoeba histolytica was greater than 30 µM in each case.

With `c1ccc2cc3c(Nc4ccc(N5CCOCC5)cc4)ccnc3cc2c1`, the IC50 in the assay with Toxoplasma gondii was greater than 30 µM; in the assay with Entamoeba histolytica it was 15.6 µM.

With `CCOC(=O)c1cn(CC)c2cc(N3CCCCC3)c(F)cc2c1=O`, the IC50 in the assay with Toxoplasma gondii and in the assay with Entamoeba histolytica was greater than 30 µM in each case.

Take `CCn1c(SCC(=O)Nc2cc(C(F)(F)F)ccc2Cl)nc2ccccc2c1=O`: the IC50 with Toxoplasma gondii and with Entamoeba histolytica was greater than 30 µM throughout.

With `Cc1ccc(Cn2c(N3CCC(C(=O)NCc4cccs4)CC3)nc3ccccc32)cc1`, the IC50 in the assay with Toxoplasma gondii and in the assay on Entamoeba histolytica was greater than 30 µM each time.

For the compound `O=C(Nc1ccc(Cl)cc1C(=O)Nc1ccncc1)c1ccc(Cl)cc1Cl`, the results for the IC50 with Toxoplasma gondii and in the assay with Entamoeba histolytica were 19 µM and greater than 30 µM, respectively.

In the case of `CCOc1ccc(-c2nonc2NC(=O)c2cccc(C)c2)cc1OCC`, the IC50 with Toxoplasma gondii and with Entamoeba histolytica was greater than 30 µM each time.

With `CC(C)(C)CC(C)(C)NCC(O)COc1ccc2c(c1)CCC2` (stereo not drawn), the IC50 in the assay with Toxoplasma gondii and in the assay with Entamoeba histolytica was greater than 30 µM each time.

In the case of `O=C(Nc1nc(-c2ccccn2)cs1)c1ccccc1Br`, the IC50 in the assay with Toxoplasma gondii and with Entamoeba histolytica was greater than 30 µM throughout.

As to `CC(O)(c1ccc(Cl)cc1)C(CN1CCCCC1)c1ccccc1` (stereo not drawn), the IC50 in the assay with Toxoplasma gondii and with Entamoeba histolytica was greater than 30 µM each time.

With `CCCCc1ccc(NS(=O)(=O)c2cc3c4c(c2)CCN4C(=O)CC3)cc1`, the IC50 in the assay on Toxoplasma gondii and in the assay with Entamoeba histolytica was greater than 30 µM throughout.

Turning to `CCOc1ccccc1CNC(=O)C1c2ccccc2C(=O)N(CC(C)C)C1c1cccs1` (stereo not drawn), the IC50 in the assay on Toxoplasma gondii and in the assay on Entamoeba histolytica was greater than 30 µM throughout.

On to `CCOC(=O)c1ccc2nc(-c3ccccc3)cc(O)c2c1`, for which the IC50 with Toxoplasma gondii and with Entamoeba histolytica was greater than 30 µM throughout.

As for `COc1ccc(C2Sc3ccccc3N=C3C2=C(O)c2ccccc23)cc1` (stereo not drawn), the IC50 in the assay on Toxoplasma gondii and in the assay with Entamoeba histolytica was greater than 30 µM throughout.

On to `Cc1ccc(Nc2nc(NCCO)c3ccccc3n2)cc1C`, for which the IC50 in the assay with Toxoplasma gondii and with Entamoeba histolytica was greater than 30 µM each time.

On to `CC1CCCCN1CCCNC(=O)c1ccc2c(c1)sc1nc(-c3ccc(F)cc3)cn12` (stereo not drawn), for which the IC50 in the assay on Toxoplasma gondii and in the assay on Entamoeba histolytica was greater than 30 µM in each case.

As for `COc1ccc(NC(=O)C2c3ccccc3C(=O)N(CC(C)C)C2c2cccs2)cc1` (stereo not drawn), the IC50 in the assay with Toxoplasma gondii and with Entamoeba histolytica was greater than 30 µM throughout.
